In one series the test system is C57BL/6J male mice. The experiment in a line: HFD-induced MASH model in mice: serum and liver biochemistry, body and liver weight, histology. Type of series: in vivo. The conditions noted are these: HFD mice; for body weight: 8 weeks of treatment; for serum TG levels: 8 weeks, fenofibrate 100 mg/kg, elafibranor 30 mg/kg, 3d 3, 10, 30 mg/kg; for liver weight/body weight: indicator for evaluating drug toxicity. The protocol:
All animal studies were conducted in accordance with national legislation and local guidelines at the Center for Laboratory Animals in Tianjin University of Science and Technology and approved by the Animal Ethics Committee of Tianjin University of Science and Technology (8 March 2022, Tianjin, China). The C57BL/6J male mice (6 weeks) were purchased from Henan Scribex Biotechnology Co, Ltd (Zhenzhou, China). Following a one-week period of acclimatization, the mice were fed a high-fat diet (HFD) comprising 60% fat (TP23300, Trophic Animal Feed High-Tech Co., Ltd., (Nantong, China)) and a low-fat control diet (TP23302, Trophic Animal Feed High-Tech Co., Ltd., (Nantong, China)) for 16 weeks.
After 16 weeks of continuous feeding on a high-fat diet, key indicators were tested to determine modeling success and drug administration was initiated. The mice were randomly divided into seven groups (n = 10) according to their body weight. The groups were as follows: control group (control diet, 0.5% CMC-Na), model group (HFD, 0.5% CMC-Na), positive control group (HFD, 100 mg/kg Fenofibrate), elafibranor group (HFD, 30 mg/kg), and 3d group (HFD, 3, 10, 30 mg/kg). The experiment was conducted over a period of eight weeks.
After fasting for 12 h, the mice were anaesthetized and blood samples were collected, as were the mice liver tissues. The ileal contents were collected and immediately frozen in liquid nitrogen and then transferred to storage at −80 °C. The blood samples were subjected to centrifugation at 3000 rpm/min for 10 min to obtain supernatant serum, which was stored at −80 °C. The liver tissues were weighed, and a portion of the liver was preserved in 4% paraformaldehyde for subsequent pathological sectioning, including staining with H&E, Masson, and Oil Red O. The remaining samples were stored at −80 °C for testing of various biochemical indices.
The serum levels of TG, total cholesterol (TC), low-density lipoprotein cholesterol (LDL-C), […] aminotransferase (AST), ALT, and TNF-α were determined according to the instructions of the kit. The levels of glutathione (GSH) and superoxide dismutase (SOD) were measured using liver tissue homogenates. The kits were purchased from the Nanjing Jiancheng Institute of Biological Engineering (Nanjing, China).

Series [1] in a line: In vitro stability in DMEM medium, simulated gastric fluid and simulated intestinal fluid (HPLC). Type of series: in vitro ADME. To be noted: 40 μM, 37 °C. The protocol:
Elafibranor and 3d (40 μM) were dissolved in DMEM medium, as well as in simulated gastric fluid (SGF) and simulated intestinal fluid (SIF), respectively, at 37 °C. The concentration of the compounds was determined within 24 h by HPLC. The HPLC conditions comprised an ACQUITY UPLC BEH C18 column maintained at 40 °C with a mobile phase consisting of 20% ultrapure water and 80% acetonitrile, with a flow rate of 1 mL/min at 360 nm.

The conditions of series [2]: in vivo; cited from earlier work.

Take `CC(C)OC(=O)C(C)(C)Oc1ccc(C(=O)c2ccc(Cl)cc2)cc1` [fenofibrate, Fenofibrate, reference compound]: in the series with C57BL/6J male mice, the “liver steatosis and lipid accumulation (HE, Oil Red O sections)” value was “improved the steatosis and reduced lipid accumulation in the liver to some extent”; the body weight entry is given as “decrease in body weight”; the “serum TG levels” value was “decreased and returned to normal levels”; the liver weight/body weight result was “substantial influence on the rise”.

`CSc1ccc(C(=O)/C=C/c2cc(C)c(OC(C)(C)C(=O)O)c(C)c2)cc1` [elafibranor, Elafibranor, reference compound]: in the series with C57BL/6J male mice, the “liver steatosis and lipid accumulation (HE, Oil Red O sections)” value is “effective in reducing the degree of steatosis and reducing lipid accumulation better than fenofibrate but still could not bring them back to fully normal”; the body weight entry is on record as “decrease in body weight”; the “serum TG levels” value was “decreased and returned to normal levels”; the liver weight/body weight result was “substantial influence on the rise”. In series [1] (DMEM, within 24 h), the “concentration in culture medium (stability)” value is reported as “remained relatively constant”. For the same compound, the “concentration in gastric fluid (stability)” value in series [1] (SGF) is “decreased significantly after 60 min”. In series [1] (SIF, within 24 h), the “concentration in intestinal fluid (stability)” value was “remained relatively constant”. Further, in series [2], the oral bioavailability result is reported as “around 30%”.

The values are drawn from paper PMC12113347, “Compound 3d Attenuates Metabolic Dysfunction-Associated Steatohepatitis via Peroxisome Proliferator-Activated Receptor Pathway Activation and Inhibition of Inflammatory and Apoptotic Signaling” (Metabolites, 2025).
